Data: PMC12686243, “Synthesis and preclinical evaluation of FAP-targeting radiotracers for PET and optical imaging” (EJNMMI Radiopharmacy and Chemistry, 2025)
Read-outs that look alike come from different tables or passages of the source.

Target: T1, hFAP (hFAP-HT1080 cells) (Homo sapiens, UniProt Q12884)
T1 construct: expressed in transfected cells; host or cells: HT1080 (human fibrosarcoma), lentiviral transduction
T1 sequence (Q12884 1-760): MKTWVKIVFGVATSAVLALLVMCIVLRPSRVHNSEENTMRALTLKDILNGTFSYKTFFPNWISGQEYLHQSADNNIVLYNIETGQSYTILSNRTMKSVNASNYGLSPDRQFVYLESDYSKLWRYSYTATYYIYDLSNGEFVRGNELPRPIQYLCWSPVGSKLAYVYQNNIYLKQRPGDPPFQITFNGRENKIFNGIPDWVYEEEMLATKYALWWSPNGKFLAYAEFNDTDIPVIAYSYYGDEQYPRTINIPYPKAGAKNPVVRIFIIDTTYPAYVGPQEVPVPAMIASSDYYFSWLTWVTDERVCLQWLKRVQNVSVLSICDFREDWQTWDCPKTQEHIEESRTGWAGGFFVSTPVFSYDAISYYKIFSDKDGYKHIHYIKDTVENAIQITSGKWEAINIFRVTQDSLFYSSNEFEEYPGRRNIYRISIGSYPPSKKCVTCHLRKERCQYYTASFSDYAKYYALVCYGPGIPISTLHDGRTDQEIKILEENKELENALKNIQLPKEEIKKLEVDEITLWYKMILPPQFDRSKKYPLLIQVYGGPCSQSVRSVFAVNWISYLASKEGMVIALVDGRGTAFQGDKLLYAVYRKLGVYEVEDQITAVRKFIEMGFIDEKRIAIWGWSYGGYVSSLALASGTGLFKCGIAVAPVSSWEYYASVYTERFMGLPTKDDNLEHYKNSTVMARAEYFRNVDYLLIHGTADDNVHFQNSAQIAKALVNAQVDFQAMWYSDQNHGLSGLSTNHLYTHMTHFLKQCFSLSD
Assay: saturation binding to hFAP-HT1080 cells
Details: 60 min, 37 °C
Experimental: Saturation binding (n ≥ 3, in triplicates) was performed to estimate thermodynamic dissociation constants (KD) and number of binding sites (Bmax). hFAP-HT1080 were cultured under the conditions described above. On the day of the experiment, 48-well plates were kept at 37 °C in an incubation chamber. The medium was replaced with 200 µL CO2-independent medium, (Gibco #18045088, ThermoFisher Germany) for total binding (TB) conditions. For the assessment of nonspecific binding (NSB), the same medium was used, containing 14 µM of FAPI-04 (in DMSO, resulting in 0.007% v/v). After 15 min preincubation for TB/NSB, 200 µL of each eight serial 1:1 dilutions (75 to 0.12 nM) of the respective radioligand were added (in triplicate), resulting in a final concentration per well of 35–0.06 nM. Cells were incubated with the respective radioligand for 60 min at 37 °C. The incubation medium was discarded and the wells washed with ice-cold PBS (2x ~ 30 s). The cells were then lysed with 500 µL 0.1 M NaOH + 1% SDS. For radioactivity detection, 400 µL of lysate was measured in a gamma counter (Perkin Elmer Wizard 1480). Additionally, binding to polystyrene in absence of cells was determined in 400 µL of lysate, along with the activity of all dilutions (50 µL). However, intrinsic plastic adherence of both compounds was very low. All counts were decay-corrected to a reference time (end of radiolabeling). Protein content was determined in an additional plate, subjected to the same conditions (pre-incubation, incubation and washing) by BCA assay and a mean value (µg/mL) used for this particular dataset (all replicate plates). From CPM measurements, final values (pmol/mg protein) were calculated using mean protein content and molar activity. Similarly, lysates from a random plate were subjected to fluorescent detection. For that purpose, 100 µL were pipetted bubble free into a transparent bottom 96 well imaging plate (Greiner Bio-One, µclear #655087). The plate was then imaged on a Typhoon 9500 bio imager (GE, USA) using either the Cy5 or IR-long filter-set (350–500 PMT voltage). From these images, fluorescence density (counts/mm^2) was determined (Bio-Rad, Quantity One 4.6.8). All processed data was then subjected to non-linear iterative curve fitting (GraphPad Prism 10) to yield Bmax (in pmol/mg protein or CNT/mm^2) and KD (in nM).

[1] = n = 1, read-out: KD, fluorescent label detection, best fit
[2] = nonspecific binding with 14 µM FAPI-04, n = 3
[3] = nonspecific binding with 14 µM FAPI-04, n = 3, read-out: KD, radioactive label detection, best fit

| Structure (SMILES) | Bmax, fluorescent label detection, best fit (n = 1) | Kd [1] [nM] | Bmax, radioactive label detection, best fit [2] [pmol/mg/protein] | Kd [3] [nM] |
| --- | --- | --- | --- | --- |
| CN(CCCN1CCN(C(=O)[C@H](CCCCNC(=O)CC[C@H](C(=O)[O-])N2CCN(CC(=O)[O-])CCN(CC(=O)[O-])CC2)NC(=O)CCOCCOCCOCCOCCNC(=O)CCCCCN2C(=CC=C3CCCC(C=CC4=[N+](CCCCS(=O)(=O)[O-])c5ccc(S(=O)(=O)O)cc5C4(C)C)=C3Oc3ccc(S(=O)(=O)O)cc3)C(C)(C)c3cc(S(=O)(=O)O)ccc32)CC1)c1ccc2nccc(C(=O)NCC(=O)N3CC(F)(F)C[C@H]3C#N)c2c1.[68Ga+3] [[^68Ga]Ga-NODAGA-FAP800] | 5.7 * 10^5 AU | 1.24 | 1.41 | 1.65 |
| CN(CCCN1CCN(C(=O)[C@H](CCCCNC(=O)CC[C@H](C(=O)[O-])N2CCN(CC(=O)[O-])CCN(CC(=O)[O-])CC2)NC(=O)CCOCCOCCOCCOCCNC(=O)CCCCC[N+]2=C(C=CC=CC=C3N(CCCS(=O)(=O)O)c4ccc(S(=O)(=O)O)cc4C3(C)C)C(C)(CCCS(=O)(=O)O)c3cc(S(=O)(=O)[O-])ccc32)CC1)c1ccc2nccc(C(=O)NCC(=O)N3CC(F)(F)C[C@H]3C#N)c2c1.[68Ga+3] (some centres unmarked) [[^68Ga]Ga-NODAGA-FAP647] | 4.8 * 10^5 AU | 0.76 | 1.63 | 0.99 |
